# Earlier results as cited in patent US20050239189A1, “Oxidant-scavenging compound for anaerobic treatment” (priority 2004, published 2005).
# Test system: CVOC dehalogenation
# Settings: eight case studies reported by Regenesis, Inc. (2000)
compound,measurement,value
CC(O)C(=O)O (stereo not shown) [Lactic Acid],stimulation of CVOC dehalogenation,stimulated CVOC dehalogenation
